Reference: a melting point compilation (Tetko et al.; mined from patent text by program, amines drawn as free bases though some values may be those of a salt)

Compound	melting point [°C]
O=C(Nc1ncc(C(F)(F)F)o1)C1c2ccccc2Oc2ccccc21	218
CO/N=C1\CCCC[C@@H]1NC(=O)c1cc(-c2ccc(Cl)cc2)c(O[C@@H](C)C(F)(F)F)cn1	123 to 125
Clc1ccc2nc(Cl)oc2c1	40 to 44
N#Cc1ccc(Oc2ccccc2[N+](=O)[O-])cc1C#N	127
CCc1cc2c(cc1CCSCC(N)=O)OCO2	98 to 99
O=Cc1cc2cc3c(cc2nc1Cl)OCCO3	222 to 224
CC(C)(C)OC(=O)N[C@@H](CCC(=O)OCc1ccccc1)C(=O)OCc1ccccc1	73 to 76
O=C(C=Cc1ccc(F)c(F)c1)OCCc1ccccc1	53 to 57
CC(C)Oc1cc(CCCOc2ncccc2CC(=O)O)n(Cc2ccc(F)cc2Cl)n1	90 to 91
NC(=O)c1ncn2c1CN=C(c1ccccc1F)c1cc(Cl)ccc1-2	292 to 294
CC(C)(O)CCC[C@@](C)(CC#CC(O)(C(F)(F)F)C(F)(F)F)[C@H]1CC[C@H]2[C@@H](O)CCC[C@]12C	146 to 147
CCOC(=O)C1=C(C)Nc2nc(N3CCOCC3)nc(N3CCOCC3)c2C1c1ccc(Cl)cc1 (stereo not drawn)	128
COc1cc(Nc2c(C#N)cnc3cc(-c4cnc(C=O)n4C)sc23)c(Cl)cc1Cl	225 to 227
Cc1cc(N2N=CCNC2=O)cc(Cl)c1C(=O)c1ccc(Cl)cc1	171 to 172
O=C(O)c1ccc(NCCCOc2ccc(Cl)cc2)cc1	180 to 181
CCNc1c(C(=O)OCC)c(C)nc2nccnc12	72 to 74
CCCCCCC1(CCCCCC)c2ccccc2-c2ccccc21	31 to 33
CCc1nc2c(N)nc3cc(CCCNS(C)(=O)=O)ccc3c2n1CC1CCOCC1	168 to 170
CC(=O)N1CCC(C)(C)c2cccc(CCCN3CCN(c4nsc5ccccc45)CC3)c21	109
O=C1NC(=O)C2(N1)C(=O)N(Cc1ccc(Br)cc1F)c1c(C(F)(F)F)cccc12 (stereo not drawn)	197 to 199
C/C(=C\c1ccc(C(=O)O)cc1)c1ccc2c(c1)OCCO2	172 to 173
CCOCCCN(C)Cc1ccc(NC(=O)C2=Cc3cc(-c4ccc(OCC)cc4)ccc3N(C)CC2)cc1	129 to 131
COc1ccc(-c2c(C=O)cc(OC)c(OC)c2OC)c(C=O)c1OS(C)(=O)=O	130 to 131
O=C(c1cc(O)cc2cc(-c3ccc(O)cc3)oc12)C(F)(F)F	215 to 216
COc1cc(-c2nc3ccc(OCCN4CCN(C)CC4)cc3n2Cc2ccccc2)cc(OC)c1OC	113

Compound	melting point [°C]
CC(C)(C)OC(=O)N[C@@H](CC1CCCCC1)[C@H](O)c1ccccn1	84 to 85
N#CC(NCCc1cccs1)c1ccccc1Cl (stereo not drawn)	40 to 41
CCC(CC)c1ccc(Cl)c2nc3n(c12)CCCCN3c1ccc(S(C)=O)cc1C (stereo not drawn)	189 to 190
COc1cc2c(cc1O)CCN(Cc1cccc(OC(C)=O)c1)C2	120 to 122
C=CCCC(C#N)(C#N)Cc1ccc(OCC(F)(F)F)cc1	58
CC(C)(C)c1cc2c(s1)C(=O)N(c1cccc(Br)c1CO)C2	55 to 56
COc1ccc2c(c1)C(=O)C(Cc1cccc(NS(=O)(=O)C(F)(F)F)c1)CO2 (stereo not drawn)	114 to 116
CCOC(CN1C(=O)C2=C(c3ccsc3)N(CC(OCC)OCC)C(=O)C2=C1c1ccsc1)OCC	166 to 167
CCCOc1ccc(C(=O)N/C(=C\c2ccc(OC(F)(F)F)cc2)C(=O)NCCO)cc1	185 to 186
Cc1cc(-c2c3ccccc3c(Br)c3sc(C)c(C)c23)cc(C)c1OS(=O)(=O)c1ccc(C(=O)OC(C)(C)C)c(O)c1	168 to 172
CN1CCN(C2=Nc3ccccc3Sc3ccccc32)C[C@H]1Cc1ccccc1	46 to 63
O=C(/C=C/C=C/c1ccccc1)NCCSCCC(=O)NO	158 to 160
O=C1N(Cc2ccc(C(F)(F)F)o2)c2ccccc2C1(O)c1nc2c(cc1O)OCO2 (stereo not drawn)	> 250
O=C(On1nnc2ccccc21)c1ccccc1	75 to 78.5
Cn1cc(C(N)=O)c(=O)c2ccc(F)cc21	317 to 318
COc1ccc(CCc2ccncc2)c2c1OCC2C (stereo not drawn)	89 to 93
COc1ccc(OC)c2c(=O)cc(C(=O)O)sc12	210 to 212
O=C(O)C(=O)c1cn2c3c(cccc13)CCC2	152 to 155
COc1ccc(OC)c2[nH]ccc12	193 to 195
Cc1ccc2c(c1)OC(C(F)(F)F)C(C(=O)O)=C2 (stereo not drawn)	202 to 203
C=Cc1ccc2ccccc2c1-c1ccc(O)c(OC)c1	83 to 86
CCCCCCCCCCCCCCc1ccc(OCC(CO)OCc2ccccc2)c(CCCCCC)c1 (stereo not drawn)	32 to 33
C=C(C)C(=O)Nc1cccc(OC(=O)Nc2ccccc2)c1	177 to 178
CC(Oc1ccc([N+](=O)[O-])cc1)c1c(F)ccc(F)c1F (stereo not drawn)	120
O=C(Nc1ccccc1Sc1ccccc1-c1nnn[nH]1)c1ccc(OCCCCc2ccccc2)cc1	156 to 159

Compound	melting point [°C]
Clc1ccc(N2CCC3(CCNCC3)CC2)cc1	95.5 to 97.4
CCn1nc(-c2ccccc2)c(C(C)=O)c(Nc2ccc(O)c3ncccc23)c1=O	262 to 263
Cn1ncc(C(=O)N2C[C@H]3C[C@@H]2CO3)c1C(=O)Nc1ccn2nc(-c3cccnc3)nc2c1	272 to 273
CC(C)c1nc2cc(COc3ccc(CCCn4ccnc4)cc3)ccc2o1	76 to 77
Cn1c(=O)c(C#N)c(Cl)c2cc(Cl)ccc21	256
CC(=O)SCC(Cc1ccccc1)C(=O)NC(C)(C)C(=O)OCc1ccccc1 (stereo not drawn)	83 to 85
Cn1c(CON2C(=O)c3ccccc3C2=O)ncc(OCc2ccccc2)c1=O	170
COc1cc(-c2nc(N(C)CCO)c3c(C)c(C#N)sc3n2)cc(OC)c1OC	164 to 166
CCCn1nc(C(=O)OCC)cc1CC(C)(C)NC(=O)OC(C)(C)C	109 to 111
O=C(Nc1cccc(Nc2ccc3c(c2)NC(=O)C3=Cc2ccc[nH]2)c1)Nc1cccc(C(F)(F)F)c1	253 to 256
COc1cc(OC)nc(NC(=O)NS(=O)(=O)c2ccccc2CO)n1	149 to 150
CC(C)Cc1ccc(C(C)C(=O)Oc2ccc(C(N)=S)cc2)cc1 (stereo not drawn)	121 to 123
Cc1c(Br)c(C#N)nn1C	92 to 94
O=C(CCc1cccc(C(F)(F)F)c1)NNC(=O)c1ccc2ncsc2c1	206 to 207
CN(C)c1ccc(C=C2SC(N3CCCC3)=NC2=O)cc1-c1cc(F)c(O)c(C23CC4CC(CC(C4)C2)C3)c1	294 to 298
Cc1cc(COc2ccc(S(=O)(=O)NC[C@@H](C(=O)NO)N3CCNCC3)cc2)c2ccccc2n1	225
C=CC[C@@](O)(C(=O)O)c1ccccc1	132
CN1CC(=O)c2ccc3ccccc3c2S1(=O)=O	192 to 193
O=C(CO)c1ccc(C(F)(F)F)cc1	112 to 114
Cc1ccc(-c2c(C(=O)O)oc(=O)c3cnccc23)cc1	254 to 256
CC(=O)NC1=NN(c2ccc(Cl)cc2)CC1	171 to 173
C/C=C1\NC(=O)N(CCCC)C1=O	127
CCCc1c(COc2ccc(Cc3nnn(CCCC(=O)O)n3)cc2)ccc(C(C)=O)c1O	92 to 94
Cc1c(OCCCOc2cc(C(C)(C)C)c(O)c(C(C)(C)C)c2C)cc(C(C)(C)C)c(O)c1C(C)(C)C	120
C1=c2ccccc2=c2c1c1cnccc1c1c2=Cc2ccccc2-1	225 to 227

Compound	melting point [°C]
O=C1c2ccccc2C(=O)N1c1cccc(Br)c1	176 to 179
O=[N+]([O-])c1ccccc1N1CCN(CC(O)COc2cccc3c2CCCC3)CC1 (stereo not drawn)	186 to 187
COc1cc(CO)cc2c(Br)ccc(OC(C)C)c12	120 to 121
Cc1nc(-c2ccc(CN3C(=O)C4(COc5cc6c(cc54)OCCO6)c4ccccc43)cc2)no1 (stereo not drawn)	174 to 175
CCC(CC(N)=O)c1cccc2nc3n(c12)CCCN3c1ccc(Cl)cc1Cl (stereo not drawn)	132 to 133
CCOC(=O)c1cn2c3c(c(-c4ccc(S(N)(=O)=O)cc4)c(F)cc3c1=O)OCC2C (stereo not drawn)	> 250
COc1cccc(C=CC(=O)N2CCNCC2)c1	84 to 86
COc1cc(-c2nc(C)no2)cc([N+](=O)[O-])c1OC	111
O=C1CCCN(C(=O)c2ccc([N+](=O)[O-])cc2Cl)c2ccsc21	180 to 185
O=C1c2cc3c(cc2-c2c1c(Cl)nc1ccccc21)OCO3	265 to 270
Cc1noc(NS(=O)(=O)c2ccccc2-c2ccc(-c3ncco3)cc2CN2CCN(C(C)C)C2=O)c1C	105 to 110
O=C1Cc2cccc(Oc3c(Cl)cccc3Cl)c2N1	> 230
O=S(=O)(c1ccc(Cl)cc1)C(c1ccc(CN2CCOCC2)cn1)c1cc(F)ccc1F (stereo not drawn)	120 to 121
O=C(N[C@H]1CC[C@H](CCN2CCN(c3nccc4c3CCO4)CC2)CC1)c1ccc(C(F)(F)F)cc1	227
CCCn1c(COCC)nc2c(N)nc3cc(OC4CCN(S(C)(=O)=O)CC4)ccc3c21	215 to 217
ClC(Cl)=CCOc1cc(Cl)c(OCc2ccc3ccccc3c2)c(Cl)c1	86.7
O=C1CCN=C(c2ccccc2Cl)c2ccccc21	135 to 137
O=C1NCCC1=Cc1ccc(C2=NCCO2)cc1	258 to 262
COC(=O)C1=C(C)NC(C)=C(C(=O)OCCCCCCCCCCCN2C(=O)c3ccccc3C2=O)C1c1cccc([N+](=O)[O-])c1 (stereo not drawn)	130 to 132
CCN1C(=O)C(=O)N(c2cc(Cl)ccc2C)C1=S	173 to 174
CCOC(=O)CCCCCOc1ccc(Nc2ccncc2)cc1	104 to 106
Cc1cc(C)n2ncc(I)c2n1	120 to 122
COC(=O)C(C)(C)N1CCC(N(Cc2ccc(-c3ccc(C(F)(F)F)cc3)cc2)C(=O)Cn2c(CCc3cccc(F)c3F)nc(=O)c3cccnc32)CC1	150
